“Also recorded” adds a separate entry of the source.
Legend:
USP9X = target: T1, USP9X (Homo sapiens, UniProt Q93008); assay: In vitro USP9X deubiquitination assay, K11-linked di-ub cleavage; format: biochemical
T1 construct: USP9X (residues 1551-1970); GST (N, cleaved yes); made in house; host or cells: E. coli BL21-Codon Plus (DE3)-RIL
T1 sequence (Q93008 1551-1970): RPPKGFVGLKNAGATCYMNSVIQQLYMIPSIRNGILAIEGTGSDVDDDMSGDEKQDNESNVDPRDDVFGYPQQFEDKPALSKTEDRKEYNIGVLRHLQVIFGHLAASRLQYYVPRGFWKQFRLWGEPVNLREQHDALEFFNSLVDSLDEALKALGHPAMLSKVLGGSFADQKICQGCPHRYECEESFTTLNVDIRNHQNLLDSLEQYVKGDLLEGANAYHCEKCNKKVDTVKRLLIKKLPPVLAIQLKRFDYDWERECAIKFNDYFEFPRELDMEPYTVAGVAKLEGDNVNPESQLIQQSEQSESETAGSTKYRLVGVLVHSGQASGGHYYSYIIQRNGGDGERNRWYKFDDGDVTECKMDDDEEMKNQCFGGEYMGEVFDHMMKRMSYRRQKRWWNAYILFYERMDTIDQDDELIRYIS
From the text: OTUD7B (residues 56-446), OTUD7A (residues 1-462), USP21 (residues 196-565), and USP9X (residues 1551-1970) proteins were expressed in E. Coli BL21-Codon Plus (DE3)-RIL cells. Through an N-terminal GST tag, the DUBs were purified by affinity chromatography using glutathione sepharose 4B (GS4B) resin. Following the liberation of the DUB from the GST tag. the DUBs were subjected to size exclusion chromatography (SEC). To form the K11-linked di-ub, individual ubiquitins (K11R-substituted donor Ub and ΔGG acceptor ubiquitin) were purified and fluorescently-labeled on an N-terminal cysteine using either Cy3- (donor) or Cy5-maleimide (acceptor). The different ubiquitins were then added to a mixture containing UBA1, UBE2S, and MgATP to form di-ub. After an overnight incubation at room temperature, UBE2S was removed by cation-exchange chromatography and the di-ub was purified by SEC. These proteins were used to monitor DUB activity in the presence or absence of the various inhibitors. The inhibitors were incubated with DUBs in a reaction buffer (20 mM Hepes pH=8.0, 200 mM NaCl, 0.25 mg/mL BSA and 0.005% Tween-20) for 5 min at room temperature and then 0.5 uM fluorescently-labeled di-ub (K11-linked) was added to start the reaction. 5×SDS-PAGE loading buffer was used to quench the reaction at the indicated time point. […] Mono-ubiquitin was quantified to generate an IC50 value. […]

NSCLC cells = assay: NSCLC cell growth; format: cell-based; settings: read-out: IC50 values to suppress NSCLC cell growth
Description: 500 cells from OTUD7B depleted A549 cells were seeded into each well of 6-well plates and cultured in the 37° C. incubator with 5% CO2 for 10-15 days until formation of visible colonies. Triplicates were performed. To test the effect of a given inhibitor on colony formation ability, 800 cells from A549, H520 and H1299 cell lines were seeded into each well of 6-well plates, respectively. Each inhibitor was added at indicated concentration the next day. Colonies were counted after 10 days of treatment. The colony staining method was as described. […] Colony numbers were counted manually. […]
2,000 cells from indicated NSLC cell lines were seeded into each well of 96-well plates. Cell viability was measured 3 days post-treatment using MTT assays following manufacturer's instruction. […] Inhibitor was added the next day at indicated concentration and cell viability was measured after 3-day treatment. For cell proliferation assays in THP1, K562 and HL60 cell lines, 1×10^6 cells from each indicated cell line were seeded in 12.5 cm2 cell culture flask and cells were counted by hemocytometer under microscope at indicated time to monitor cell proliferation. […] Inhibitor was added the next day at indicated concentrations and cell number was counted after 3 days treatment. […]

[1] = system: OTUD7B-induced GβL deubiquitination; assay: In-cell GβL ubiquitination assay (Ni-NTA pulldown, HEK293 cells); format: cell-based; settings: HEK293 cells transfected with DNA constructs, compound for 16 hrs; listed as #19
Description: FIGS. 2A-2L show results of validation for OTUD7B small molecule inhibitors in cells. (A-D) IB analyses of WCL from indicated NSCLC cells treated with […] of indicated compounds for 16 hrs. (E, F) IB analyses of WCL from either A549 (E) or HEK293 (F) cells treated with indicated doses of compound #19 for 16 hrs. (G) IB analyses of Ni-NTA pulldowns and WCL from HEK293 cells transfected with indicated DNA constructs. Where indicated, cells were treated with […] of indicated compounds for 16 hrs before cell collection. (H-L) Quantifications of cell viability by MTT assays in A549 cells treated with indicated doses of indicated compounds for 72 hrs. Error bars were calculated as mean+/−SD, n=3. *p<0.05 (one-way ANOVA test).

- inhibition of USP9X (USP9X): failed to inhibit
SMILES: Cc1cc(NC(=O)c2cnn(C)c2C(=O)Nc2cc(C)nn2C2CCCC2)n(C2CCCC2)n1 [7Bi]
- IC50 (NSCLC cells): ~2.5 µM
- blocking OTUD7B-induced GβL deubiquitination in cells [1]: partially blocked OTUD7B-induced GβL deubiquitination; also recorded: able to block OTUD7B-mediated GβL deubiquitination in cells
